Literature values as cited in patent publication US12434072B2, “Methods and systems for neural stimulation via visual, auditory and peripheral nerve stimulations” (Cognito Therapeutics, Inc., priority 2016, dated 2025).

What was measured:
[1] = 70 kg adult
[2] = human clinical trials; low (tracer) doses

Row | Estimated absorbed radiation dose, Adrenals [1] [rad/mCi] | Estimated absorbed radiation dose, Brain [1] [rad/mCi] | Estimated absorbed radiation dose, Breasts [1] [rad/mCi] | Estimated absorbed radiation dose, Gallbladder Wall [1] [rad/mCi] | Estimated absorbed radiation dose, Heart Wall [1] [rad/mCi] | Estimated absorbed radiation dose, Kidneys [1] [rad/mCi] | Estimated absorbed radiation dose, Liver [1] [rad/mCi] | Estimated absorbed radiation dose, Lower Large Intestine Wall [1] [rad/mCi] | Estimated absorbed radiation dose, Lungs [1] [rad/mCi] | Estimated absorbed radiation dose, Muscle [1] [rad/mCi] | Estimated absorbed radiation dose, Ovaries [1] [rad/mCi] | Estimated absorbed radiation dose, Pancreas [1] [rad/mCi] | Estimated absorbed radiation dose, Red marrow [1] [rad/mCi] | Estimated absorbed radiation dose, Skin [1] [rad/mCi] | Estimated absorbed radiation dose, Small Intestine [1] [rad/mCi] | Estimated absorbed radiation dose, Spleen [1] [rad/mCi] | Estimated absorbed radiation dose, Testes [1] [rad/mCi] | Estimated absorbed radiation dose, Thymus [1] [rad/mCi] | Estimated absorbed radiation dose, Thyroid [1] [rad/mCi] | Estimated absorbed radiation dose, Total Body [1] [rad/mCi] | SMILES | also measured
1 | 0.05 | 0.037 | 0.023 | 0.529 | 0.048 | 0.048 | 0.238 | 0.103 | 0.032 | 0.032 | 0.065 | 0.053 | 0.053 | 0.022 | 0.242 | 0.033 | 0.025 | 0.027 | 0.025 | 0.043 | CNc1ccc(/C=C/c2ccc(OCCOCCOCC[18F])nc2)cc1 [18F-AV-45] | Effective Dose ([1]; Effective Dose): 0.069 rad/mCi; Estimated absorbed radiation dose, Upper Large Intestine Wall [1]: 0.276 rad/mCi; Estimated absorbed radiation dose, Urinary bladder wall [1]: 0.1 rad/mCi; Estimated absorbed radiation dose, Uterus [1]: 0.058 rad/mCi; Most common adverse events [2]: headache, injection site reactions (injection site rash, extravasation, hemorrhage, irritation and puncture site hematoma), musculoskeletal pain, fatigue, and nausea
2 | 0.048 | 0.07 | 0.034 | 0.049 | 0.22 | 0.074 | 0.058 | 0.051 | 0.064 | 0.039 | 0.053 | 0.096 | 0.047 | 0.03 | 0.047 | 0.14 | 0.041 | 0.044 | 0.039 | 0.043 | OC[C@H]1O[C@@H](O)[C@H]([18F])[C@@H](O)[C@@H]1O [FDG] | Critical organ for radiation dose [1]: urinary bladder wall, followed by heart, spleen and pancreas; Estimated absorbed radiation dose, Upper Large Intestine Wall [1]: 0.046 rad/mCi; Estimated absorbed radiation dose, Urinary bladder wall [1]: 0.32 rad/mCi; Estimated absorbed radiation dose, Uterus [1]: 0.062 rad/mCi
